Measurements reported in patent publication US12433892B2, “Compositions and methods of treatment for neurological disorders comprising depression” (Gliapharm SA, priority 2018, dated 2025).
Structures can show the parent of a compound that is named as a salt.

Experiments:
[1] = system: astrocytes; assay: Intracellular glycogen quantification; assay type: cell-based, mouse; conditions: Prestwick hits; 10 uM, 3 h
Protocol: For glycogen dosage, a protein dosage was first performed in order to assess whether harvested astrocytes from primary cell cultures yielded enough and equivalent amounts of proteins comparing each replicate, and to ensure that the obtained differences in glycogen quantities were due to drug action and not to inner protein quantities.
Astrocytes used for these dosages were previously grown in 6-well plates for 17 days and stimulated with Vehicle (DMSO) or drug of interest (1 μM to 100 μM) for 180 min, at 37° C. 5% CO2/95% air in D5030 complete medium. Medium was removed and replaced with 600 μl of 30 mM Tris HCl, and stored at −20° C.
Proteins were dosed using the micro BCA Protein Assay kit (Thermo Scientific), as described in the manufacturer's instructions. Briefly, thawed cells were sonicated and 5 μl aliquots were placed in a transparent 96-well plate, to which we added 25 μl 30 mM Tris HCl, 70 μl H2O and 100 μl of a BCA mix (made as described in manufacturer's guidelines). After a 120 min-incubation at 37° C., absorbance was measured with Safire 2 spectrophotometer at a wavelength of 562 nm, and protein quantities were determined from a standard curve of Bovine Serum Albumin (BSA).
Glycogen was quantified using a 250 μl-aliquot of the same stimulated, thawed, and sonicated cells. After an incubation period of 30 min at 90° C. and 400 rpm, 28 μl of an acetic acid/sodium acetate (both from Sigma) 0.1M pH 4.6 buffer was added to each aliquot, which was then separated in two. Each split aliquot received whether 5 μl of amyloglucosidase (Roche) or 5 μl H2O, and all cell solutions were incubated for 120 min in a shaking 37° C.-waterbath. After a centrifugation at 16'000 G for 5 min, 20 μl of supernatant were placed 96-well plate, to which 150 μl of a mix containing 0.67 mM ATP (Roche), 0.67 mM NADP (Roche), 1.8% hexokinase/glucose-6-phosphate dehydrogenase (Roche) and 0.1M Tris Buffer-HCl/3.3 mM magnesium (Fluka)/pH 8.1 buffer was added. Fluorescence was measured with Safire 2 spectrophotometer (340 nm excitation/440 nm emission). Glycogen concentration was obtained by subtracting glucose value of samples with amyloglucosidase to samples without amyloglucosidase, and were expressed relative to the amount of proteins previously determined.
Levels of intracellular glycogen in astrocytes were measured at 3 h after stimulation with 20 hits from the Prestwick library (10 μM each), as shown in FIG. 2. n=6-10; Ctrl pos. is glutamate (0.5 mM). Statistical analysis consisted in ANOVA followed by Fisher LSD post-hoc test for pair-wise comparisons.
Statistical analysis consisted in ANOVA followed by Fisher LSD post-hoc test for pair-wise comparisons.

[2] = system: cerebral extracellular lactate; assay: In vivo pharmacodynamics: lactate biosensors in cortex; design: species or system mouse
Protocol: Extracellular levels of lactate were monitored in vivo using lactate biosensors (Pinnacle Technology), according to the manufacturer's instructions. Cannulae were surgically implanted in mice cerebral cerebral motor cortex areas M1/M2 (coordinates: +1.94 mm (to bregma), lateral −1.4 mm (to mideline), ventral −1.0 mm (to dura)) 5-7 days before administration of the compounds. Drugs were administered per os as previously described, and cerebral levels of extracellular lactate were dynamically recorded for 6 hours. Mice were administered vehicle alone first, followed 3 hours later by vehicle or drug (10 or 100 mg/kg). Area Under the Curve (AUC) quantifying the fluctuations of extracellular lactate concentrations for each of the compound tested was calculated using Graphad Prism and the ratio of AUC after drug over Vehicle administration was calculated. Groups of 8 male mice were used for each condition.
To measure biological effect of lead molecules in vivo in the brain, lactate levels were quantified after administration of the drug by using lactate biosensors implanted in the cortex of freely moving mice.

[3] = In vivo pharmacokinetics (PFC microdialysis and plasma); design: species or system mouse; conditions: after gavage with 100 mg/kg
Protocol: Mice were anesthetized using isoflurane (2% and 800 mL/min O2). Before surgery, Finadyne (1 mg/kg, s.c.) was administered for analgesia during surgery and the post-surgical recovery period. A mixture of bupivacaine and epinephrine was used for local anesthesia of the incision site of the periost of the skull.
The animals were placed in a stereotaxic frame (Kopf instruments, USA). MetaQuant microdialysis probes with a 3 mm exposed polyacrylonitrile membrane (MQ-PAN 3/3, Brainlink, the Netherlands) were implanted into the prefrontal cortex (coordinates for the tip of the probe: AP=+2.0 mm (to bregma), lateral=−0.7 mm (to midline), ventral=−3.3 mm (to dura), with the incisor bar set at 0.0 mm and an angle of 8°). All coordinates were based on “The mouse brain in stereotaxic coordinates” by Paxinos and Franklin (2004). The probes were attached to the skull with a stainless steel screw and dental cement (Fuji Plus Capsules, Henry Schein, the Netherlands).
In the same surgical procedure, a catheter was placed into the jugular vein to accommodate blood sampling. An indwelling cannula was inserted into the right jugular vein, and exteriorized through an incision on top of the skull. The end of the jugular vein catheter was fixed in position with dental acrylic cement and attached to the skull with two stainless steel screws.
Experiments were initiated one day after surgery. The MetaQuant microdialysis probes were connected with flexible PEEK tubing (Western Analytical Products Inc. USA; PK005-020) to a microperfusion pump (CMA Microdialysis) and perfused with aCSF+0.2% BSA at a flow rate of 0.12 μL/min. Ultrapurified water+0.2% BSA was used as the carrier flow at a flow rate of 0.80 μL/min. After a minimum of 1.5 hours of prestabilization, microdialysis samples were collected in 30 minute intervals. Samples were collected into polystyrene microvials (Microbiotech/se AB, Sweden; 4001029) using an automated fraction collector (UV 8301501, TSE, Univentor, Malta). After collection of three basal samples, at t=0 minutes, drug of interest was administered per os. Eight additional samples were collected after compound administration. All samples were stored at −80° C. until off-line analysis.
In parallel, blood samples (50 μL) were taken from the jugular vein through the cannula. These samples were collected at specified intervals into vials containing 5 μL heparin (500 IE/mL in saline). The samples were mixed by inverting the tubes and, subsequently, centrifuged at 4000 rpm (1500×g) for 10 min at 4° C. The supernatant was stored as plasma in 1.5 mL Eppendorf vials (Sarstedt, Germany) at −80° C. until off-line analysis.
At the end of the experiment, the animals were euthanized and terminal brain tissue was collected for visual histological verification of the probe positions.
PK was measured for GP-04, GP-05, GP-07, GP-R1 and GP-P1 in the PFC (prefrontal cortex) and plasma of wild type C56Bl/6 mice by CRO Brainsonline.

[4] = system: C57Bl/6 male and female mice; assay: In vivo chronic toxicity (28 days); conditions: 10 mg/kg per os once a day, 28 days
Protocol: During this period, clinical symptoms and weight were recorded.
Chronic toxicity was assessed.

[5] = system: primary astrocytes; assay: Intracellular glycogen quantification, Example 2; assay type: cell-based, mouse; conditions: 10 μM, 3 h (GP-0157: 0.1, 1, 10 μM)
Protocol: To assess for the effect of the compounds of the invention, those were tested in primary astrocytes, as described below. Secretion of lactate was measured directly in the extracellular medium, and indirectly through the acidification of extracellular medium using extracellular pH sensor SNARE-5F-(AND-6)-CAR (SNARF5). Glucose uptake was measured by quantification 2-deoxyglucose in the cell. Cell Cultures Primary cultures of cerebrocortical astrocytes were obtained from 1 to 2-day-old OF1 mouse pups (Charles River). Briefly, cortices were isolated and minced in small pieces under a dissecting microscope. The cells were incubated for 30 min at 37° C. in a solution containing 20 U/ml papain, 1 mM L-cysteine and 10 kU/ml DNase I. After dissociation, papain activity was stopped by the addition of fetal calf serum (FCS). Single-cell suspension was then obtained by mechanical dissociation, which consisted in cells trituration in a DMEM D7777 medium supplemented with 44 mm NaHCO3, 10 ml/L antibiotic/antimycotic solution and 10% FCS. The cells were seeded at an average density of ˜10'000 cells/cm2 on poly-D-lysine coated 96- or 12-well culture plates, depending on their use, and grown in DMEM D7777 medium supplemented with 44 mm NaHCO3, 10 ml/L antibiotic/antimycotic solution and 10% FCS at 37° C. in a humidified atmosphere containing 5% CO2/95% air. Culture medium was renewed twice a week. Cells were stimulated and harvested between DIV14 and DIV17, when confluence and cell growth were optimal. Extracellular Medium Acidification (SNARF5) Secretion of lactate was measured indirectly through the acidification of extracellular medium using extracellular pH sensor […] (SNARF5). After washing cells twice with stimulation medium (DMEM (D5030, Sigma), 1 mM NaHCO2, and 5 mM Glucose, pH 7.4) at 37° C., cells were stimulated with compounds at a final concentration ranging from 10 nM to 30 μM in 50 μl per well of stimulation medium supplemented with 10 μM of SNARF5 (Life Technologies Corporation). Each compound was tested in two different plates for duplicates. After 90 min stimulation, fluorescence was read at exc. (excitation) 480 nm/emm. (emission) 580 nm and at exc 480 nm/emm. 630 nm. The ratio of fluorescence between 630 nm and 580 emission values, which is proportional to extracellular pH, was calculated. In each plate, 8 wells were used for negative controls (DMSO 0.1%) and 8 wells were used for positive controls (CCCP 2 μM in DMSO). The extracellular medium acidification in primary mouse astrocytes treated with GP-A1 was quantified (FIG. 13). Extracellular medium acidification was measured over a period of 1.5 h and 3 h. […] Extracellular Lactate Quantification Secretion of L-lactate was measured in the extracellular medium of 96-well plated astrocytes after 90 min stimulation (at 37° C., in 5% CO2/95% air conditions) with Vehicle (DMSO), the compounds of the invention (100 nM to 100 μM) or positive control. […] Stimulation medium was composed of D5030 medium complemented with 5 mM D-glucose and 44 mM sodium bicarbonate, pH 7.2. To quantify lactate concentrations in the extracellular medium, 200 μl of a 0.2M Glycine-semicarbazide buffer (pH 10) containing 3 mM NAD and 14 U/ml LDH was added to each well of a 96-well plate containing 30 μl aliquots of extracellular medium. Samples were incubated at 37° C. for 1 h. Fluorescence intensity (340 nm excitation/450 nm emission), which represents the amount of NADH produced, was measured, and lactate concentration values were determined relative to a standard curve of L-lactate concentrations. The release of lactate from primary mouse astrocytes treated with GP-A1 was quantified (FIG. 5A and FIG. 14). Accumulation of lactate in the extracellular medium was measured over a period of 1.5 h. […] Intracellular Glycogen Quantification Astrocytes grown on 12-well plates were used for intracellular glycogen quantifications. […]

[6] = system: astrocytes; assay: Intracellular glycogen quantification; assay type: cell-based, mouse; conditions: CDC54K hits; 10 uM, 3 h

Structure (SMILES): N=C(N)N1CCc2ccccc2C1 [Debrisoquin sulfate]
- Glycogen (statistical significance of glycogen degradation) [1]: **** (****p<0.0001)
- cerebral lactate (AUC ratio vs vehicle) ([2]; 10 mg/kg per os): Significant increase
- levels in the PFC [3]: at therapeutic range (100 nM to 1 uM) and sustained over several hours

Structure (SMILES): C[N+]1(C)CCC(=C(c2ccccc2)c2ccccc2)CC1 [Diphemanil methylsulfate]
- Glycogen (statistical significance of glycogen degradation) [1]: **** (****p<0.0001)
- chronic toxicity (toxic or safe) [4]: safe
- cerebral lactate (AUC ratio vs vehicle) ([2]; 10 mg/kg per os): Significant increase
- levels in the PFC [3]: at therapeutic range (100 nM to 1 uM) and sustained over several hours

Structure (SMILES): Cc1ccccc1NC(=O)C1CCCN(c2ncnc3oc(C)c(C)c23)C1 (stereo not drawn) [F228-0422]
- mobilization of intracellular glycogen [5]: significantly enhance the mobilization of intracellular glycogen

Structure (SMILES): CCc1nc(-c2csc(S(=O)(=O)NCc3ccc4c(c3)OCO4)c2)no1 [L287-0468]
- mobilization of intracellular glycogen [5]: significantly enhance the mobilization of intracellular glycogen

Structure (SMILES): CCn1nccc1-c1csc(S(=O)(=O)Nc2ccc(Cl)cc2F)c1 [L924-1031]
- mobilization of intracellular glycogen [5]: significantly enhance the mobilization of intracellular glycogen

Structure (SMILES): CC(=O)N1CCc2sc(S(=O)(=O)N3CCN(c4ccccc4C)CC3)cc2C1 [P025-0159]
- cerebral lactate (AUC ratio vs vehicle) ([2]; 100 mg/kg per os): Significant increase
- levels in the PFC [3]: need chemical improvement to reach their target at therapeutic dose in the brain
- mobilization of intracellular glycogen [5]: significantly enhance the mobilization of intracellular glycogen

Structure (SMILES): c1ccc2c(c1)CCN(c1ncnc3sccc13)C2 [T0517-8250]
- mobilization of intracellular glycogen [5]: significantly enhance the mobilization of intracellular glycogen

Structure (SMILES): N#Cc1ccc(C(=O)N2CCC(Nc3ncnc4c3CCC4)C2)cc1 (stereo not drawn) [T636-2387]
- cerebral lactate (AUC ratio vs vehicle) ([2]; 100 mg/kg per os): Significant increase
- mobilization of intracellular glycogen [5]: significantly enhance the mobilization of intracellular glycogen

Structure (SMILES): COc1cc(C)c(Cl)cc1S(=O)(=O)NCc1ccncc1 [T5580243]
- cerebral lactate (AUC ratio vs vehicle) ([2]; 100 mg/kg per os): Significant increase
- levels in the PFC [3]: at therapeutic range (100 nM to 1 uM) and sustained over several hours

Structure (SMILES): O=C1CCCN1c1ccc(S(=O)(=O)Nc2cccc(/C=C/c3ccccn3)c2)cc1 [T5644989]
- mobilization of intracellular glycogen [5]: significantly enhance the mobilization of intracellular glycogen

Structure (SMILES): COc1cccc(CNS(=O)(=O)c2ccc3c(c2)CCCN3C(C)=O)c1 [T5967389]
- Glycogen (statistical significance of glycogen degradation) [6]: * (*p<0.05)

Structure (SMILES): Cc1nc2ccc(NS(=O)(=O)c3cccc(F)c3)cc2s1 [T6937001]
- mobilization of intracellular glycogen [5]: significantly enhance the mobilization of intracellular glycogen
